Structures are written as SMILES. “And” between values parts separate entries of the source, which are not always exact repeats. Identical values can stand only once.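 Step 1: Grow cells in 96-well plates. Step 2: Expose to compound for 48 hours at 5 concentrations. Step 3: Interpolate endpoints linearly; if unreached, use highest concentration. Here, GI50 denotes the concentration required for 50% inhibition of growth. TGI is the concentration that stops growth completely.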

Common to all, as to assay: inhibition of tumour cell growth, NCI panel, 48 h
The subject of test [1] is SK-OV-3 ovarian.
Test [2] has as its system SW-620 colon.
Test [3] deals with LOX IMVI melanoma.
In test [4] the test system is HOP-62 NSCLC.
For test [5], the system named is SK-MEL-28 melanoma.
Test [6] concerns M14 melanoma.
For test [7], the system named is UACC-257 melanoma.
Test [8] has as its system DMS 273 small cell lung.
Test [9] deals with SNB-78 CNS.
The test system of test [10] is MCF7 breast.

As for `CC1=NNC(=NCCN(C)C)C/C1=C/c1ccccc1Cl`, the TGI in test [1], in test [2], in [3], in [4], in test [5] and in test [6] was more than 100 µM in each case. Further, the TGI was 98 µM in [7], more than 100 µM in test [8] and more than 100 µM in test [9].
For `CC(C)[C@@H]1C=C(c2ccccc2)c2ccccc2C1C(C#N)(C#N)C(C)C` (stereo partly drawn), the TGI in test [1], in test [2], in test [3], in test [4], in [5] and in [6] was more than 100 µM in each case. Further, the TGI in [7], in test [8] and in test [9] was more than 100 µM throughout.
Regarding `Nc1nc2c(ncn2C2OC(CO)C(O)C2N)c(=O)[nH]1` (stereo not drawn), the TGI in test [1], in test [2], in test [3], in test [4], in test [5] and in test [6] was more than 100 µM throughout. Also, the TGI in test [7], in [8] and in test [9] was more than 100 µM each time.
With `COC(=O)C[CH](C(=O)OC)[Ge]([CH3])([CH3])[S]c1ccccc1` (stereo not drawn), the GI50 in [1] was 25.8 µM; in test [2], 13 µM; in test [3] it was 4.92 µM; in test [4], 22.4 µM; in test [5] it was 23.3 µM; in test [6], 21.5 µM. The figures for the GI50 in [7], in test [8] and in [9] were 33 µM, 12.6 µM and 22.1 µM, respectively. For the same molecule, the TGI in test [1] was 67 µM; in test [2], 26.8 µM; in test [3], 17.1 µM; in test [4], 50.5 µM; in [5], 65.7 µM; in test [6], 57.5 µM. Further, the TGI in test [7] was more than 100 µM; in test [8], 29.9 µM; in [9], 96.7 µM.
For the molecule `CCCCCCCCCCCC(=O)OCC1OC(n2cc(F)c(=O)[nH]c2=O)C(NC(=O)OCc2ccccc2)C(O)C1O` (stereo not drawn), the TGI in test [1] is more than 100 µM; in test [2], 41.5 µM; in [3] it was 32.4 µM; in test [4] it was more than 100 µM; in test [5] it was 35.4 µM; in [6], 36.2 µM. The TGI is 50.8 µM in test [7], 36.2 µM in [8] and 87.7 µM in [9].
As for `OCC(O)C(O)c1nn(-c2ccccc2)c2nc3cc(Cl)c(Cl)cc3nc12` (stereo not drawn), the TGI in test [1] is more than 100 µM; in test [2], more than 100 µM; in [3], 58.1 µM; in [4], more than 100 µM; in test [5] it was more than 100 µM; in test [6] it was more than 100 µM. Moreover, the TGI is more than 100 µM in test [7], 56.6 µM in [8] and more than 100 µM in [9].
For `NCCCCCS(=O)(=O)O`, the TGI in test [1], in [2], in test [3], in test [4], in [5] and in [6] was more than 100 µM throughout. Moreover, the TGI in test [7], in [8] and in test [9] was more than 100 µM in each case.
`C/C1=C\[C@H](C)C[C@H](C)OC(=O)C[C@H](c2ccc(O)cc2)NC(=O)[C@@H](Cc2c(Br)[nH]c3ccccc23)N(C)C(=O)[C@H](C)NC(=O)[C@@H](C)C1`: the GI50 was 0.0267 µM in test [1]; 0.0347 µM in test [2]; 0.0135 µM in test [3]; 0.0883 µM in test [4]; 0.0272 µM in [5]; 0.0456 µM in [6]. Further, the values for the GI50 in test [7], in test [10] and in test [9] were 0.0747 µM, 0.208 µM and 0.0339 µM, respectively. Moreover, the TGI was 0.579 µM and 0.0749 µM in [1]; more than 100 µM in test [2]; 0.317 µM and 0.0533 µM in [3]; 0.443 µM and 0.369 µM in [4]; 0.308 µM and 1.74 µM in [5]; 0.37 µM and 1.15 µM in test [7]. Besides, the TGI in test [8] was 0.83 µM; in test [10] it was more than 100 µM; in test [9], 0.795 µM and 0.163 µM.
Take `N#Cc1cccc(NC(=O)c2ccc(C(=O)O)c(C(=O)c3ccc(C(=O)O)c(C(=O)Nc4cccc(C#N)c4)c3)c2)c1`: the TGI in test [1], in [2], in test [3], in test [4], in [6] and in test [7] was more than 100 µM throughout. The TGI in test [8] and in [9] was more than 100 µM in each case.
Take `Cc1cc(C)cc(-n2c3nc(=O)n(C)c(=O)c-3nc3ccccc32)c1`: the TGI is more than 100 µM in test [1]; 40.7 µM in [2]; 91.8 µM in [3]; more than 100 µM in [4]; 77.4 µM in test [6]; 31.2 µM in test [7]. Besides, the TGI was 37.7 µM in test [8] and more than 100 µM in test [9].
As for `Cn1cnc([N+](=O)[O-])c1Sc1ccccn1`, the TGI in test [1], in test [2], in [3], in test [4], in [5] and in [6] was more than 100 µM each time. Further, the TGI in [7], in test [8] and in test [9] was more than 100 µM in each case.
Consider `Cc1ccc(S(=O)(=O)N(/N=C(\N)Oc2ccc(Cl)cc2)C(=N)Oc2ccc(Cl)cc2)cc1`, for which the TGI in test [1], in test [2], in test [3], in test [4], in test [5] and in [6] was more than 100 µM throughout. Further, the TGI in test [7], in test [8] and in test [9] was more than 100 µM throughout.
With `N/C(=N\NS(=O)(=O)c1ccccc1)Oc1ccc(Cl)cc1`, the TGI in test [1] is more than 100 µM; in test [2], 19.5 µM; in [3], more than 100 µM; in test [4] it was more than 100 µM; in test [5], more than 100 µM; in [6], more than 100 µM. Also, the TGI in [7], in [8] and in [9] was more than 100 µM each time.
For the molecule `Cn1c2c([N+](=O)[O-])[se]nc2c(=O)n1-c1ccc([N+](=O)[O-])cc1`, the TGI in test [1] is 6.1 µM; in [2], 1.48 µM; in [3], 6.88 µM; in [4], 14.2 µM; in [5], 4.39 µM; in test [6], 2.62 µM. The TGI turned out to be 4.17 µM in test [7], 6.96 µM in test [8] and 3.76 µM in test [9].
For the molecule `Cc1cnc[nH]c1=O`, the TGI in test [1], in test [2], in test [3], in [4], in [5] and in [6] was more than 100 µM each time. Also, the TGI in [7], in test [8] and in test [9] was more than 100 µM throughout.
On to `CC#C[C@@]1(O)CCCC[C@@H]1O`, for which the TGI in test [1], in test [2], in test [3], in [4], in [5] and in test [6] was more than 100 µM each time. Also, the TGI in [7], in test [8] and in test [9] was more than 100 µM in each case.
For `c1ccc2c(CNCCCCCCNCc3cccc4ccccc34)cccc2c1`, the TGI in test [1] was 31.5 µM; in test [2] it was 14.1 µM; in [3] it was 3.5 µM; in [4], 30.6 µM; in [5], 3.29 µM; in [6], 3.25 µM. For the same molecule, the figures for the TGI in test [7], in test [8] and in test [9] were 3.17 µM, 26.6 µM and 23.9 µM, respectively.
As for `COC(=O)C1=C(OC)c2cc3c(cc2C(c2cc(OC)c(OC)c(OC)c2)C1C(=O)OC)OCO3` (stereo not drawn), the TGI in [1], in test [2], in test [3], in test [4], in test [5] and in test [6] was more than 100 µM each time. For the same molecule, the TGI in test [7], in test [8] and in test [9] was more than 100 µM throughout.

Values taken from PubChem BioAssay (NCI).
